Data set [1] is described as follows: Cell viability (LC50) in MT4 cells in the antiviral test. Conditions: human, concentration at which 50% of the cells remain viable. Type of data set: cell-based. The source says:
(§1) The anti-HIV activity of the compounds of the invention can be determined in MT4 cells according to the procedure of Pauwels et. al. (J. Virol. Methods 1988, 20, 309).

The target of a further data set is HIV-1 protease (Human immunodeficiency virus type 1 group M subtype B, UniProt P04585). Briefly: Fluorogenic assay for screening inhibitors of HIV protease. Type of data set: biochemical. Conditions: read-out: Percent Inhibition. Here is the method:
Fluorogenic Assay for Screening Inhibitors of HIV Protease
The inhibitory potency of the compounds of the invention can be determined by the following method.
A compound of the invention is dissolved in DMSO and a small aliquot further diluted with DMSO to 100 times the final concentration desired for testing. The reaction is carried out in a 6 X 50 mm tube in a total volume of 300 microliters. The final concentrations of the components in the reaction buffer are: 125 mM sodium acetate, 1 M sodium chloride, 5 mM dithiothreitol, 0.5 mg/ml bovine serum albumin, 1.3 µM fluorogenic substrate, 2% (v/v) dimethylsulfoxide, pH 4.5. After addition of inhibitor, the reaction mixture is placed in the fluorometer cell holder and incubated at 30°C for several minutes. The reaction is initiated by the addition of a small aliquot of cold HIV protease. The fluorescence intensity (excitation 340 nm, emmision 490 nM) is recorded as a function of time. The reaction rate is determined for the first six to eight minutes. The observed rate is directly proportional to the moles of substrate cleaved per unit time. The percent inhibition is 100 X (1 - (rate in presence of inhibitor)/(rate in absence of inhibitor)).

For a further data set, the system named is HIV-13B. Briefly: Antiviral activity: inhibition of the cytopathic effect of HIV in MT4 cells (procedure of Pauwels et al.). Particulars: Human immunodeficiency virus 1, MT4. Type of data set: cell-based.
Source text: as §1
In general terms: Protection from cytopathic effect is a common read-out in antiviral testing.

A word on the CC50: it is the concentration at which the toxic effect on the cells reaches its halfway point. Lower therefore signals greater toxicity to the cells. A word on the inhibition: it is the share of the control response that was lost under treatment. What is called IC50 is the midpoint of a concentration-inhibition curve. The low end stands for inhibition by little substance, the high end for a need for much substance. Take `CC(C)[C@H](NC(=O)OCc1ccc2ccccc2n1)C(=O)N[C@@H](Cc1ccccc1)[C@@H](O)C[C@H](Cc1ccccc1)NC(=O)OCc1cccnc1` [Example 326, (2S,3S,5S)-2-(N-(N-((2-Ouinolinyl)methoxycarbonyl)valinyl)amino)-5-(N-((3-pyridinyl)methoxycarbonyl)amino)-1,6-diphenyl-3-hydroxyhexane]: the CC50 in data set [1] is 27 µM. The inhibition at 0.0005 µM on HIV-1 protease is 66%. In the data set on HIV-13B, this molecule had a concentration for half-maximal inhibition (IC50) of 0.053 to 0.086 µM.

The record behind these values is patent publication EP0997459A1, “Intermediates for preparing retroviral protease inhibiting compounds” (priority 1990, dated 1992).
